Laboratory results published in patent publication US7351728B2, “Oxazolyl-aryloxyacetic acid derivatives and their use as PPAR agonists” (Eli Lilly and Company, priority 2003, dated 2008).

Test system: HuapoAI transgenic mice
Assay: Evaluation of triglyceride and cholesterol level in HuapoAI transgenic mice
Format: in vivo
Settings: Mus musculus, 168 h, 30 mg/kg daily oral gavage 7 days; for change in vivo at 30 mg/kg: percent increase in FPLC HDLc area under the curve; for inhibition in vivo at 30 mg/kg: serum, male human apoAI transgenic mice, read-out: % Triglyceride Reduction
Procedure: Five to six week old male mice, transgenic for human apoAI [C57Bl/6-tgn(apoa1)lrub, Jackson Laboratory, Bar Harbor, Me.] were housed five per cage (10″×20″×8″ with aspen chip bedding) with food (Purina 5001) and water available at all times. After an acclimation period of 2 weeks, animals were individually identified by ear notches, weighed, and assigned to groups based on body weight. Beginning the following morning, mice were dosed daily by oral gavage for 7 days using a 20 gauge, 1½″ curved disposable feeding needle (Popper & Sons). Treatments were test compounds (30 mg/kg), a positive control (fenofibrate, 100 mg/kg) or vehicle [1% carboxymethylcellulose (w/v)/0.25% Tween80 (w/v); 0.2 ml/mouse]. Prior to termination on day 7, mice were weighed and dosed. Three hours after dosing, animals were anesthetized by inhalation of isoflurane (2-4%; Abbott Laboratories, Chicago, Ill.) and blood obtained via cardiac puncture (0.7-1.0 ml). Whole blood was transferred to serum separator tubes (Vacutainer SST), chilled on ice, and permitted to clot. Serum was obtained after centrifugation at 4° C. and frozen until analysis for triglycerides, total cholesterol, compound levels, and serum lipoprotein profile by fast protein liquid chromatography (FPLC) coupled to an inline detection system. After sacrifice by cervical dislocation, the liver, heart and epididymal fat pads were excised and weighed.
The animals dosed with vehicle had average triglycerides values of 60-80 mg/dl, which were reduced by the positive control fenofibrate (33-58 mg/dl with a mean reduction of 37%). The animals dosed with vehicle had average total serum cholesterol values of 140-180 mg/dl, which were increased by fenofibrate (190-280 mg/dl, with a mean elevation of 41%). […] Fenofibrate increased the amount of HDLc (68-96 v-sec with a mean percent increase of 48%).
Glucose was measured colorimetrically using commercially purchased reagents (Sigma #315-500). According to the manufacturers, the procedures were modified from published work (McGowan, M. W., Artiss, J. D., Strandbergh, D. R. & Zak, B. Clin Chem, 20:470-5 (1974) and Keston, A. Specific colorimetric enzymatic analytical reagents for glucose. Abstract of papers 129th Meeting ACS, 31C (1956).); and depend on the release of a mole of hydrogen peroxide for each mole of analyte, coupled with a color reaction first described by Trinder (Trinder, P. Determination of glucose in blood using glucose oxidase with an alternative oxygen acceptor. Ann Clin Biochem, 6:24 (1969)). The absorbance of the dye produced is linearly related to the analyte in the sample. The assays were further modified in our laboratory for use in a 96 well format. Standards (Sigma #339-11, Sigma #16-11, and Sigma #CC0534 for glucose triglycerides and total cholesterol, respectively), quality control plasma (Sigma # A2034), and samples (2 or 5 μl/well) were measured in duplicate using 200 μl of reagent. An additional aliquot of sample, pipetted to a third well and diluted in 200 μl water, provided a blank for each specimen. Plates were incubated at room temperature (18, 15, and 10 minutes for glucose, triglycerides and total cholesterol, respectively) on a plate shaker (DPC Micormix 5) and absorbance read at 500 nm (glucose and total cholesterol) or 540 nm (triglycerides) on a plate reader (Wallac Victor 1420). Sample absorbances were compared to a standard curve (100-800, 10-500, and 100-400 mg/dl for glucose, triglycerides and total cholesterol, respectively). Values for the quality control sample were always within the expected range and the coefficient of variation for samples was below 10%. All samples from an experiment were assayed at the same time to minimize inter-assay variability.
Serum lipoproteins were separated and cholesterol quantitated with an in-line detection system. Sample was applied to a Superose® 6 HR 10/30 size exclusion column (Amersham Pharmacia Biotech) and eluted with phosphate buffered saline-EDTA at 0.5 ml/min. […]

Row | Structure (SMILES) | change in vivo at 30 mg/kg | inhibition in vivo at 30 mg/kg
1 | Cc1oc(-c2ccccc2)nc1CCOc1ccc(OC(C)(C)C(=O)O)cc1 [Example 1, 2-Methyl-2-{4-[2-(5-methyl-2-phenyloxazol-4-yl)ethoxy]phenoxy}propionic acid] | 77% | 79.2%
2 | Cc1oc(-c2cccc(Br)c2)nc1CCOc1ccc(OC(C)(C)C(=O)O)cc1 [Example 9A, 2-(4-{2-[2-(3-Bromophenyl)-5-methyloxazol-4-yl]ethoxy}phenoxy)-2-methylpropionic acid] | 118% | 67.1%
3 | CCc1cccc(-c2nc(CCOc3ccc(OC(C)(C)C(=O)O)cc3)c(C)o2)c1 [Example 12, 2-(4-{2-[2-(3-Ethylphenyl)-5-methyloxazol-4-yl]ethoxy}phenoxy)-2-methylpropionic acid] | 180% | 74.3%
4 | Cc1oc(-c2cccc(CCc3ccccc3)c2)nc1CCOc1ccc(OC(C)(C)C(=O)O)cc1 [Example 12A, 2-Methyl-2-(4-{2-[5-methyl-2-(3-phenethylphenyl)oxazol-4-yl]ethoxy}phenoxy)-propionic acid] | 47% | 
5 | CCc1ccc(-c2nc(CCOc3ccc(OC(C)(C)C(=O)O)cc3)c(C)o2)cc1 [Example 13, 2-(4-{2-[2-(4-Ethylphenyl)-5-methyloxazol-4-yl]ethoxy}phenoxy)-2-methylpropionic acid] | 133% | 44.8%
6 | Cc1oc(-c2ccc(OC3CCCCC3)cc2)nc1CCOc1ccc(OC(C)(C)C(=O)O)cc1 [Example 21, 2-(4-{2-[2-(4-Cyclohexyloxy-phenyl)-5-methyl-oxazol-4-yl]-ethoxy}-phenoxy)-2-methyl-propionic acid] | 9% | 
7 | Cc1cc(OCCc2nc(-c3ccccc3)oc2C)ccc1OC(C)(C)C(=O)O [Example 24, 2-Methyl-2-{2-methyl-4-[2-(5-methyl-2-phenyloxazol-4-yl)ethoxy]phenoxy}propionic acid] | 61% | 75%
8 | CCCc1cc(OCCc2nc(-c3ccccc3)oc2C)ccc1OCC(=O)O [Example 26, {4-[2-(5-methyl-2-phenyl-oxazol-4-yl)ethoxy]-2-propylphenoxy}acetic acid] | 19% | 25.5%
9 | CCCc1cc(OCCc2nc(-c3ccccc3)oc2C)ccc1OC(C)(C)C(=O)O [Example 26A, 2-Methyl-2-{4-[2-(5-methyl-2-phenyloxazol-4-yl)ethoxy]-2-propylphenoxy}propionic acid] | 43% | 35.9%
10 | CCCc1cc(OC(C)(C)C(=O)O)ccc1OCCc1nc(-c2ccccc2)oc1C [Example 27A, 2-Methyl-2-{4-[2-(5-methyl-2-phenyloxazol-4-yl)ethoxy]-3-propylphenoxy}propionic acid] | 52% | 29.5%
11 | CCc1cc(OCCc2nc(-c3ccccc3)oc2C)ccc1OC(C)(C)C(=O)O [Example 30A, 2-{2-Ethyl-4-[2-(5-methyl-2-phenyloxazol-4-yl)ethoxy]phenoxy}2-methylpropionic acid] | 93% | 51.8%
12 | Cc1oc(-c2ccccc2)nc1CCOc1ccc(OC(C)(C)C(=O)O)c(CC(C)C)c1 [Example 30C, 2-{2-Isobutyl-4-[2-(5-methyl-2-phenyloxazol-4-yl)ethoxy]phenoxy}-2-methylpropionic acid] | 31% | 6.2%
13 | Cc1oc(-c2ccccc2)nc1CCOc1ccc(OC(C)(C)C(=O)O)c(CCc2ccccc2)c1 [Example 30J, 2-Methyl-2-{4-[2-(5-methyl-2-phenyloxazol-4-yl)ethoxy]-2-phenethylphenoxy}propionic acid] | 77% | 
14 | CCCCc1cc(OC(C)(C)C(=O)O)ccc1OCCc1nc(-c2ccccc2)oc1C [Example 31F, 2-{3-Butyl-4-[2-(5-methyl-2-phenyloxazol-4-yl)ethoxy]phenoxy}-2-methylpropionic acid] | 79% | 35.7%
15 | Cc1oc(-c2ccccc2)nc1CCOc1ccc(OC(C)(C)C(=O)O)c(Cc2ccccc2)c1 [Example 32, 2-{2-Benzyl-4-[2-(5-methyl-2-phenyloxazol-4-yl)ethoxy]phenoxy}-2-methylpropionic acid] | 20% | 
16 | Cc1oc(-c2ccccc2)nc1CCOc1ccc(OC(C)(C)C(=O)O)c2ccccc12 [Example 37, 2-Methyl-2-{4-[2-(5-methyl-2-phenyl-oxazol-4-yl)-ethoxy]-naphthalen-1-yloxy}-propionic acid] | 94% | 29.9%
17 | Cc1oc(-c2ccccc2)nc1CCOc1ccc(OC(C)(C)C(=O)O)c2c1CCCC2 [Example 38, 2-Methyl-2-{4-[2-(5-methyl-2-phenyl-oxazol-4-yl)-ethoxy]-5,6,7,8-tetrahydro-naphthalen-1-yloxy}-propionic acid] | 86% | 39%
